Legend:
Format in all cases: functional
CCRF-CEM = assay: Antiproliferative activity against human CCRF-CEM cells
HCT-116 = assay: Antiproliferative activity against human HCT116 cells
HCT-15 = assay: Antiproliferative activity against human HCT15 cells
Hs-578T = assay: Antiproliferative activity against human HS578T cells
SNB-75 = assay: Antiproliferative activity against human SNB75 cells
DU-145 = assay: Antiproliferative activity against human DU145 cells
UACC-62 = assay: Antiproliferative activity against human UACC62 cells
RPMI-8226 = assay: Antiproliferative activity against human RPMI8226 cells
RXF 393 = assay: Antiproliferative activity against human RXF393 cells
SF-539 = assay: Antiproliferative activity against human SF539 cells
HOP-92 = assay: Antiproliferative activity against human HOP92 cells; settings: for TGI: read-out: pTGI (converted)
UO-31 = assay: Antiproliferative activity against human UO31 cells
SF-295 = assay: Antiproliferative activity against human SF295 cells
CAKI-1 = assay: Antiproliferative activity against human CAKI-1 cells
SR = assay: Antiproliferative activity against human SR cells; settings: for TGI: read-out: pTGI (converted)
[1] = Antiproliferative activity against human […] cells
PC-3 = assay: Antiproliferative activity against human PC3 cells
786-0 = assay: Antiproliferative activity against human 786-0 cells
EKVX = assay: Antiproliferative activity against human EKVX cells
MOLT-4 = assay: Antiproliferative activity against human MOLT4 cells
SK-MEL-5 = assay: Antiproliferative activity against human SK-MEL-5 cells
HL-60 = assay: Antiproliferative activity against human HL60 cells
LOX IMVI = assay: Antiproliferative activity against human LOX IMVI cells; settings: for TGI: read-out: pTGI (converted)

| Compound | GI50 (CCRF-CEM) | GI50 (HCT-116) | GI50 (HCT-15) | GI50 (DU-145) | GI50 (RPMI-8226) | GI50 (PC-3) | GI50 (786-0) | GI50 (MOLT-4) | GI50 (SK-MEL-5) | GI50 (HL-60) | GI50 (Hs-578T) | GI50 (SNB-75) | GI50 (UACC-62) | GI50 (SF-539) | GI50 (HOP-92) | GI50 (UO-31) | GI50 (SF-295) | GI50 (CAKI-1) | GI50 [1] | GI50 (EKVX) | other results |
| --- | --- | --- | --- | --- | --- | --- | --- | --- | --- | --- | --- | --- | --- | --- | --- | --- | --- | --- | --- | --- | --- |
| COc1ccc(-n2cc(-c3cc(OC)c(OC)c(OC)c3)[nH]c2=O)cc1Cl | > 100 µM | > 100 µM | > 100 µM |  | > 100 µM | > 100 µM | 25.1 µM | > 100 µM | > 100 µM | > 100 µM | 31.6 µM | 6.31 µM | 50.1 µM | 31.6 µM | 15.8 µM | > 100 µM | 39.8 µM | > 100 µM | > 100 µM | > 100 µM | GI50 (LOX IMVI): > 100 µM; GI50 (SR): 50.1 µM |
| COc1ccc(-n2cc(-c3ccc(OC)c(OC)c3)[nH]c2=S)cc1Cl | > 100 µM | > 100 µM | > 100 µM | > 100 µM | > 100 µM | > 100 µM | 50.1 µM | 79.4 µM | > 100 µM | > 100 µM | 39.8 µM | 5.01 µM | > 100 µM | 39.8 µM | 39.8 µM | > 100 µM | 39.8 µM | > 100 µM | > 100 µM | 39.8 µM | GI50 (LOX IMVI): > 100 µM; GI50 (SR): > 100 µM |
| COc1ccc(-n2cc(-c3cc(OC)c(OC)c(OC)c3)[nH]c2=S)cc1OC | > 100 µM | > 100 µM | > 100 µM | > 100 µM | > 100 µM | > 100 µM | > 100 µM | 6.31 µM | > 100 µM | > 100 µM | > 100 µM | 63.1 µM | > 100 µM | > 100 µM | > 100 µM | > 100 µM | > 100 µM | > 100 µM | > 100 µM | > 100 µM | GI50 (LOX IMVI): > 100 µM; GI50 (RXF 393): > 100 µM; GI50 (SR): 2.51 µM; TGI (SR): 7.94 µM |
| COc1ccc(-c2cn(-c3ccc(Cl)cc3)c(=S)[nH]2)cc1OC | > 100 µM | 3.98 µM | 5.01 µM | 12.6 µM | 3.98 µM | 63.1 µM | 6.31 µM | > 100 µM | 3.16 µM | 3.16 µM | 20 µM | 15.8 µM |  | 31.6 µM | 0.316 µM | 39.8 µM | 6.31 µM | 3.16 µM | 6.31 µM | 12.6 µM | GI50 (LOX IMVI): 1.58 µM; LC50 (LOX IMVI): 6.31 µM; TGI (LOX IMVI): 3.16 µM; GI50 (RXF 393): 3.16 µM; TGI (HOP-92): 7.94 µM; GI50 (SR): 3.16 µM |
| COc1ccc(-c2cn(-c3ccc(OC)c(OC)c3)c(=O)[nH]2)cc1 | > 100 µM | > 100 µM | > 100 µM | > 100 µM | > 100 µM | > 100 µM | > 100 µM | 1.58 µM | 63.1 µM | 39.8 µM | > 100 µM | 25.1 µM | > 100 µM | > 100 µM | > 100 µM | > 100 µM | > 100 µM | > 100 µM | 50.1 µM | > 100 µM | GI50 (LOX IMVI): > 100 µM; GI50 (SR): 0.1 µM; TGI (SR): 0.631 µM |

Now from value to molecule, other results behind:

| GI50 (CCRF-CEM) | GI50 (HCT-116) | GI50 (HCT-15) | GI50 (DU-145) | GI50 (RPMI-8226) | GI50 (PC-3) | GI50 (786-0) | GI50 (MOLT-4) | GI50 (SK-MEL-5) | GI50 (HL-60) | Compound | GI50 (Hs-578T) | GI50 (SNB-75) | GI50 (UACC-62) | GI50 (SF-539) | GI50 (HOP-92) | GI50 (UO-31) | GI50 (SF-295) | GI50 (CAKI-1) | GI50 [1] | GI50 (EKVX) | other results |
| --- | --- | --- | --- | --- | --- | --- | --- | --- | --- | --- | --- | --- | --- | --- | --- | --- | --- | --- | --- | --- | --- |
| > 100 µM | > 100 µM | > 100 µM | > 100 µM | > 100 µM | > 100 µM | > 100 µM | 0.0199 µM | > 100 µM | 0.398 µM | COc1cc(-c2cn(-c3ccc(Cl)cc3)c(=O)[nH]2)cc(OC)c1OC | > 100 µM | > 100 µM | > 100 µM | > 100 µM | > 100 µM | > 100 µM | > 100 µM | > 100 µM | > 100 µM | > 100 µM | GI50 (RXF 393): > 100 µM; GI50 (SR): 0.0316 µM; TGI (SR): 39.8 µM |
|  | 63.1 µM | 79.4 µM | 1.58 µM | > 100 µM | 39.8 µM | 25.1 µM | > 100 µM | 39.8 µM | 63.1 µM | COc1cc(-n2cc(-c3ccccc3)[nH]c2=O)cc(OC)c1OC | 31.6 µM | 12.6 µM | 39.8 µM | 20 µM | 20 µM | 39.8 µM | 39.8 µM | 39.8 µM | 31.6 µM | 25.1 µM | GI50 (LOX IMVI): > 100 µM; GI50 (SR): > 100 µM |
| 0.1 µM | 0.0316 µM | 0.0316 µM | 0.01 µM | 0.158 µM | 0.0316 µM | 0.0199 µM | 0.1 µM | 0.01 µM |  | COc1ccc(/C=C\c2cc(OC)c(OC)c(OC)c2)cc1O [COMBRETASTATIN A4] | 0.158 µM | 0.794 µM | 0.01 µM | 0.0398 µM | 0.2 µM | 0.2 µM | 0.0631 µM | 0.0398 µM | 50.1 µM | 0.398 µM | GI50 (LOX IMVI): 0.01 µM; TGI (LOX IMVI): 12.6 µM; GI50 (RXF 393): 0.794 µM; TGI (HOP-92): 39.8 µM; GI50 (SR): 0.126 µM; TGI (SR): 79.4 µM |
| 39.8 µM | 15.8 µM | > 100 µM | 31.6 µM | 63.1 µM | 63.1 µM | 20 µM | 20 µM | 39.8 µM | 31.6 µM | O=c1[nH]c(-c2ccc(Cl)c(Cl)c2)cn1-c1ccc(Cl)cc1 | 15.8 µM | 20 µM | 25.1 µM | 20 µM | 15.8 µM | 25.1 µM | 25.1 µM | 25.1 µM | 25.1 µM | 31.6 µM | GI50 (LOX IMVI): 39.8 µM; GI50 (RXF 393): 31.6 µM; GI50 (SR): 5.01 µM; TGI (SR): 15.8 µM |
| 0.631 µM | 25.1 µM | > 100 µM | 31.6 µM | 5.01 µM | 50.1 µM | 25.1 µM | > 100 µM | 25.1 µM | > 100 µM | COc1ccc(-n2cc(-c3cc(OC)c(OC)c(OC)c3)[nH]c2=S)cc1Cl | 15.8 µM | 20 µM | > 100 µM | 20 µM | 31.6 µM | 39.8 µM | 39.8 µM | 5.01 µM | 31.6 µM | 39.8 µM | GI50 (LOX IMVI): 6.31 µM; GI50 (RXF 393): 15.8 µM |
| 63.1 µM | 50.1 µM | > 100 µM | 39.8 µM | 50.1 µM | 31.6 µM | 20 µM | 39.8 µM | 39.8 µM | > 100 µM | COc1ccc(-n2cc(-c3ccc(Cl)cc3)[nH]c2=S)cc1Cl | 25.1 µM | 20 µM | 79.4 µM | 20 µM | 15.8 µM | 20 µM | 25.1 µM | 25.1 µM | 20 µM | 39.8 µM | GI50 (LOX IMVI): 100 µM; GI50 (RXF 393): 25.1 µM |
| < 0.01 µM | 31.6 µM | > 100 µM | 63.1 µM | 12.6 µM | 15.8 µM | 15.8 µM | > 100 µM | 31.6 µM | > 100 µM | COc1cc(-n2cc(-c3ccc(Cl)cc3)[nH]c2=O)cc(OC)c1OC | 79.4 µM | 25.1 µM | 25.1 µM | 25.1 µM |  | 20 µM | 31.6 µM | 15.8 µM |  | 31.6 µM | GI50 (LOX IMVI): 63.1 µM; GI50 (SR): > 100 µM |
